The NIST ThermoML archive (doi:10.1021/je060271a)
“And” between values parts separate entries of the source, which are not always exact repeats. Equal values may be shown once.

Conditions: Liquid, Vibrating tube method

CCCCC(=O)OCC(COC(=O)CCCC)(COC(=O)CCCC)COC(=O)CCCC [pentaerythritol tetrapentanoate]
Conditions	mass density
343.15 K, 33864 kPa	1002.5 kg/m3
343.15 K, 33916 kPa	1002.5 kg/m3
343.15 K, 33961 kPa	1002.5 kg/m3
343.15 K, 34007 kPa	1002.5 kg/m3
343.15 K, 34062 kPa	1002.6 kg/m3
343.15 K, 34111 kPa	1002.5 kg/m3
343.15 K, 34161 kPa	1002.6 kg/m3
343.15 K, 34218 kPa	1002.7 kg/m3
343.15 K, 34251 kPa	1002.6 kg/m3
343.15 K, 34275 kPa	1002.8 kg/m3
343.15 K, 34304 kPa	1002.7 kg/m3
343.15 K, 34328 kPa	1002.8 kg/m3
343.15 K, 34353 kPa	1002.7 kg/m3
343.15 K, 34384 kPa	1002.7 kg/m3
343.15 K, 34410 kPa	1002.8 kg/m3
343.15 K, 34438 kPa	1002.7 kg/m3
343.15 K, 34472 kPa	1002.8 kg/m3
343.15 K, 34497 kPa	1002.9 kg/m3
343.15 K, 34503 kPa	1002.9 kg/m3
343.15 K, 34504 kPa	1002.8 kg/m3
343.15 K, 34505 kPa	1002.9 kg/m3
343.15 K, 34506 kPa	1002.8 kg/m3
343.15 K, 34508 kPa	1002.8 kg/m3
343.15 K, 34509 kPa	1002.8 kg/m3
343.15 K, 34510 kPa	1002.9 kg/m3 and 1002.8 kg/m3
343.15 K, 34512 kPa	1002.8 kg/m3
343.15 K, 34514 kPa	1002.8 kg/m3
343.16 K, 412.1 kPa	978.6 kg/m3
343.16 K, 441.3 kPa	978.8 kg/m3
343.16 K, 470.3 kPa	978.8 kg/m3
343.16 K, 495.2 kPa	978.9 kg/m3
343.16 K, 522.1 kPa	978.8 kg/m3
343.16 K, 556.2 kPa	979 kg/m3
343.16 K, 586.3 kPa	978.8 kg/m3
343.16 K, 617.4 kPa	979 kg/m3
343.16 K, 654 kPa	979 kg/m3
343.16 K, 685.5 kPa	979 kg/m3
343.16 K, 717.1 kPa	979 kg/m3
343.16 K, 781.4 kPa	979 kg/m3
343.16 K, 807.8 kPa	979.1 kg/m3
343.16 K, 835.6 kPa	979.2 kg/m3
343.16 K, 864.6 kPa	979.2 kg/m3
343.16 K, 901.1 kPa	979.2 kg/m3
343.16 K, 933.9 kPa	979.2 kg/m3
343.16 K, 969.2 kPa	979.2 kg/m3
343.16 K, 1013.1 kPa	979.1 kg/m3
343.16 K, 1049.6 kPa	979.2 kg/m3
343.16 K, 1077.9 kPa	979.4 kg/m3
343.16 K, 1107.4 kPa	979.3 kg/m3
343.16 K, 1133.1 kPa	979.3 kg/m3
343.16 K, 1159.9 kPa	979.4 kg/m3
343.16 K, 1187.6 kPa	979.4 kg/m3
343.16 K, 1223.2 kPa	979.4 kg/m3
343.16 K, 1254.5 kPa	979.4 kg/m3
343.16 K, 1286.1 kPa	979.4 kg/m3
343.16 K, 1325.9 kPa	979.4 kg/m3
343.16 K, 1361.3 kPa	979.5 kg/m3
343.16 K, 1398.1 kPa	979.6 kg/m3
343.16 K, 1437 kPa	979.8 kg/m3
343.16 K, 1485.1 kPa	979.6 kg/m3
343.16 K, 1528.1 kPa	979.7 kg/m3
343.16 K, 1574.3 kPa	979.7 kg/m3
343.16 K, 1633.5 kPa	979.6 kg/m3
343.16 K, 2223.1 kPa	980.2 kg/m3
343.16 K, 2283.6 kPa	980.2 kg/m3
343.16 K, 2321.1 kPa	980.2 kg/m3
343.16 K, 2385.5 kPa	980.4 kg/m3
343.16 K, 2425 kPa	980.4 kg/m3
343.16 K, 2459.5 kPa	980.4 kg/m3
343.16 K, 2536.9 kPa	980.4 kg/m3
343.16 K, 2611.6 kPa	980.6 kg/m3
343.16 K, 2873.3 kPa	980.7 kg/m3
343.16 K, 2917.7 kPa	980.7 kg/m3
343.16 K, 3019.5 kPa	980.9 kg/m3
343.16 K, 3175.8 kPa	980.9 kg/m3
343.16 K, 3224.4 kPa	981.1 kg/m3
343.16 K, 3294.8 kPa	981.1 kg/m3
343.16 K, 3352.1 kPa	981.2 kg/m3
343.16 K, 3426.6 kPa	981.2 kg/m3
343.16 K, 3497.5 kPa	981.3 kg/m3
343.16 K, 3535.3 kPa	981.2 kg/m3
343.16 K, 3629.9 kPa	981.3 kg/m3
343.16 K, 3647.8 kPa	981.5 kg/m3
343.16 K, 3662.8 kPa	981.3 kg/m3
343.16 K, 3677.4 kPa	981.3 kg/m3
343.16 K, 3695.4 kPa	981.4 kg/m3
343.16 K, 3713.8 kPa	981.4 kg/m3
343.16 K, 3733.2 kPa	981.4 kg/m3
343.16 K, 3754.8 kPa	981.5 kg/m3
343.16 K, 3785.2 kPa	981.5 kg/m3
343.16 K, 3811.5 kPa	981.5 kg/m3
343.16 K, 3838.2 kPa	981.6 kg/m3
343.16 K, 3865.5 kPa	981.5 kg/m3
343.16 K, 5098.9 kPa	982.6 kg/m3
343.16 K, 5142.8 kPa	982.5 kg/m3
343.16 K, 5167.8 kPa	982.6 kg/m3
343.16 K, 5186.3 kPa	982.5 kg/m3
343.16 K, 5201 kPa	982.6 kg/m3
343.16 K, 5210.3 kPa	982.5 kg/m3
343.16 K, 5224.5 kPa	982.5 kg/m3
343.16 K, 5255.1 kPa	982.6 kg/m3
343.16 K, 5300.5 kPa	982.6 kg/m3
343.16 K, 5325.2 kPa	982.7 kg/m3
343.16 K, 5345.4 kPa	982.7 kg/m3
343.16 K, 5483.5 kPa	982.9 kg/m3
343.16 K, 5624.6 kPa	983 kg/m3
343.16 K, 5676.1 kPa	983 kg/m3
343.16 K, 5700.4 kPa	982.9 kg/m3
343.16 K, 5724.9 kPa	982.9 kg/m3
343.16 K, 5754 kPa	983 kg/m3
343.16 K, 5779.4 kPa	983.1 kg/m3
343.16 K, 5804.5 kPa	983.1 kg/m3
343.16 K, 5829.4 kPa	982.9 kg/m3
343.16 K, 5859.3 kPa	983 kg/m3
343.16 K, 5884.9 kPa	983.1 kg/m3
343.16 K, 5910.4 kPa	983.1 kg/m3
343.16 K, 5937.2 kPa	983 kg/m3
343.16 K, 5968 kPa	983.3 kg/m3
343.16 K, 5994 kPa	983.1 kg/m3
343.16 K, 6020.7 kPa	983.2 kg/m3
343.16 K, 6053.2 kPa	983.2 kg/m3
343.16 K, 6080.4 kPa	983.2 kg/m3
343.16 K, 6108.6 kPa	983.3 kg/m3
343.16 K, 6137.6 kPa	983.3 kg/m3
343.16 K, 6165.8 kPa	983.2 kg/m3
343.16 K, 6199.5 kPa	983.3 kg/m3
343.16 K, 6228 kPa	983.4 kg/m3
343.16 K, 6262.9 kPa	983.4 kg/m3
343.16 K, 6292.8 kPa	983.4 kg/m3
343.16 K, 6323.1 kPa	983.4 kg/m3
343.16 K, 6352.3 kPa	983.4 kg/m3
343.16 K, 6382.9 kPa	983.5 kg/m3
343.16 K, 6408.4 kPa	983.5 kg/m3
343.16 K, 6433.7 kPa	983.5 kg/m3
343.16 K, 6459.6 kPa	983.5 kg/m3
343.16 K, 6491.2 kPa	983.7 kg/m3
343.16 K, 6518.6 kPa	983.6 kg/m3
343.16 K, 6545.1 kPa	983.6 kg/m3
343.16 K, 6572.4 kPa	983.7 kg/m3
343.16 K, 6599.5 kPa	983.7 kg/m3
343.16 K, 6632.2 kPa	983.7 kg/m3
343.16 K, 6659.3 kPa	983.6 kg/m3
343.16 K, 6686.8 kPa	983.6 kg/m3
343.16 K, 6719.6 kPa	983.7 kg/m3
343.16 K, 6747.4 kPa	983.8 kg/m3
343.16 K, 6804.2 kPa	983.8 kg/m3
343.16 K, 6838.6 kPa	983.8 kg/m3
343.16 K, 6899.2 kPa	983.8 kg/m3
343.16 K, 6929.1 kPa	983.9 kg/m3
343.16 K, 6959.5 kPa	983.9 kg/m3
343.16 K, 6989.5 kPa	984 kg/m3
343.16 K, 7026.2 kPa	983.9 kg/m3
343.16 K, 7056.7 kPa	984 kg/m3
343.16 K, 7088 kPa	984.1 kg/m3
343.16 K, 7120.1 kPa	984.1 kg/m3
343.16 K, 7261.4 kPa	984.1 kg/m3
343.16 K, 7294.7 kPa	984.3 kg/m3
343.16 K, 7328.4 kPa	984.1 kg/m3
343.16 K, 7396.9 kPa	984.2 kg/m3
343.16 K, 7437.8 kPa	984.2 kg/m3
343.16 K, 7472.9 kPa	984.3 kg/m3
